In patent US20250290110A1, “MOGROSIDE COMPOSITIONS AND METHODS OF PRODUCING SAME” (Elo Life Systems, priority 2024, published 2025):
Several values for one entry are separate records, joined by “and”; a condition that tells them apart may be missing. Identical values can stand only once. Entries after “also recorded” stand apart in the source; their conditions may differ.

Experiments:
Format in all cases: in vivo, human
[1] = Descriptive analysis of sweetener attributes, sensory panel, 15-cm line scale; details: for Astringent, average intensity score / Bitter Linger, average intensity score / Bitterness, average intensity score / Body, average intensity score / Caramel, average intensity score / Fruity, average intensity score / Licorice, average intensity score / Sweet Linger, average intensity score / Sweetness, average intensity score: about 6 SEV in spring water, 0=low, 60=high; for taste quality in words: sensory panel
Excerpt: The same samples described above were presented to a panel of 6-9 experienced judges for descriptive analysis. Solutions were blind-coded with random 3-digit codes and served at room temperature for evaluation. Panelists individually scored attributes of each sample, such as sweetness intensity, bitterness, astringency, and the presence of side flavors such as licorice or fruitiness. Scores were based on a 15-cm line scale marked with evenly spaced 5-point increments from low (0) to high (60). Samples were evaluated in duplicate. Water and saltine crackers were provided for rinsing between samples.
(§1) A solution of V90 was made at 410 ppm in spring water (Ice Mountain, retail) to be about 6 SEV. A second solution was made at about 6 SEV of purified mogroside-V (Chem Faces, CFS202202) at 325 ppm. A panel of 7-8 trained judges evaluated the temporal properties and taste attributes of each sample, including blind duplicates, in the same manner described previously in the Mogroside Blend 80/15/5 Taste Quality sections.
The panel also evaluated the intensity of several sensory attributes such as bitterness, astringency, caramel flavor, and fruitiness. The same 15-cm line scale was used for scoring, labeled from low (0) to high (60) with evenly spaced 5-point increments. The samples were served in 4-oz soufflé cups that were labeled with random 3-digit codes. Samples were evaluated at room temperature and included blind duplicates. Water and saltine crackers were provided for rinsing between samples. A 400-ppm solution of V90 (Huacheng Bio, LHGE-230401) was tasted as a reference at the beginning of the descriptive analysis session for calibration verification among panelists.

[2] = Temporal properties: onset of sweetness, time to maximum sweetness, aftertaste decay, trained sensory panel
Description: Equi-sweet solutions at about 6 SEV were made in spring water (Ice Mountain, retail) of the following sweeteners: purified mogroside-V (Chem Faces, CFS202202), rebaudioside M (95%, Tate & Lyle, lot #1802-2302-1), rebaudioside A (95%, Tate & Lyle, 210617-01), and monk fruit (50% mogroside V, Tate & Lyle, 45GF220305). Another solution was prepared at about 6 SEV of a blend composed of 80% purified mogroside-V (Chem Faces, CFS202202), 15% 11-oxo-mogroside-V (Chem Faces, CFS202201), and 5% mogroside IIIA-1 (Chem Faces, CFS202201). The concentration of each solution can be found in Table 7.
A set of samples of each solution was evaluated by a panel of 7-9 trained judges. Panelists measured the time to onset of sweetness and time to reach maximum sweetness using a timer. Sweetness decay after expectorating was measured by rating sweetness intensity every 5 seconds on a 15-cm line scale graduated in evenly spaced 5-point increments and labeled low (0) to high (60). Samples were served at room temperature in 4-oz soufflé cups, labeled with random 3-digit codes. Water and saltine crackers were provided for rinsing between samples. Blind duplicates were evaluated in a second panel under the same conditions.
as §1
Two individual mogroside components of the blend, 11-oxo mogroside-V (Chem Faces, […]) and mogroside III-A1 (Chem Faces, 202301), were evaluated separately in spring water (Ice Mountain, retail) to determine the concentration needed to reach approximately 6 SEV. Solutions were then prepared at 3600 ppm of 11-oxo-mogroside-V and 600 ppm mogroside IIIA-1.
A panel of 6-7 trained judges evaluated the solutions by measuring the time to onset of sweetness and time to reach maximum sweetness using a timer. Decay of lingering aftertaste after expectorating was measured by rating sweetness intensity every 5 seconds on a 15-cm line scale graduated in evenly spaced 5-point increments and labeled low (0) to high (60). Samples were served at room temperature in 4-oz soufflé cups, labeled with random 3-digit codes, including blinded duplicates. Water and saltine crackers were provided for rinsing between samples.

[3] = Sweetness concentration response curve against sucrose reference standards, trained sensory panel; details: for Potency at 5 SEV / potency, times as sweet as sucrose at 5 SEV: spring water, room temperature; for potency, times as sweet as sucrose at 5 SEV: at 5 sucrose equivalent value (SEV)
Description: A blend composed of 80% purified mogroside-V (Chem Faces, CFS202202), 15% 11-oxo-mogroside-V (Chem Faces, CFS202201), and 5% mogroside IIIA-1 (Chem Faces, CFS202201) was diluted to six different concentrations (from 100 ppm to 650 ppm) in spring water (Ice Mountain, retail). For each solution, a set of five reference standards of sucrose dissolved in water in 0.5% (w/w) concentration increments was also prepared. Each concentration of the mogroside blend was evaluated by 6-8 trained judges. Samples were presented in 4-oz soufflé cups at room temperature, and the test sample was labeled with a random 3-digit code. Panelists tasted the blind-coded sample compared to the set of reference samples to determine the sweetness intensity score to the nearest 0.1 unit. Each concentration was evaluated in duplicate. The sweetness intensity scores were then plotted against the mogroside blend concentration to make a concentration response curve, and the best fitting Beidler equation was generated.
V90 is a 90% pure mogroside V containing about 6% 11-oxo mogroside-V. Five different concentrations of V90 (Huacheng Bio, LHGE-230401), ranging from 100 ppm to 500 ppm, were diluted in spring water (Ice Mountain, retail). Each dilution was presented to a panel of 7-8 judges experienced in evaluating sweeteners and was accompanied by a range of five sucrose solution reference standards bracketing the sweetness intensity of the test sample in 0.5% (w/w) increments. Panelists assigned a sweetness intensity score to each test sample, including blind duplicates, to the nearest 0.1 unit. All samples were served at room temperature in 4-oz soufflé cups with the test samples labeled with random 3-digit codes. Water and saltine crackers were provided for rinsing between samples.
Both individual mogrosides were also evaluated at five different concentrations in spring water (Ice Mountain, retail) for sweetness intensity. 11-oxo-mogroside was diluted to concentrations ranging from 200 ppm to 600 ppm and mogroside IIIA-1 was diluted to concentrations from 100 to 500 ppm. For each concentration, a set of five sucrose solution reference standards were prepared in 0.5% (w/w) increments to approximately bracket the sweetness intensity of the test sample. A panel of 6-8 trained judges evaluated each test sample in duplicate, accompanied by the corresponding reference standards, and assigned a sweetness intensity score to the sample to the nearest 0.1 unit. Samples were presented in 4-oz soufflé cups at room temperature, and the test sample was labeled with a random 3-digit code. The sweetness intensity scores were then plotted as a function of mogroside concentration to make a concentration response curve, and the best fitting Beidler equation was generated.
The error bars around each point represent 1 standard deviation. The data fit a Beidler equation with an r2 value of 0.961. The equation for this line is:
SEV=16.08*C/(521.2+C) • where SEV is the % sucrose equivalent sweetness as determined by sensory panel and C is the concentration of mogroside blend in ppm or mg/L.
P=SEV*10,000/C • where C is the concentration of the mogroside blend in ppm or mg/L and SEV is the % sucrose equivalent sweetness determined by sensory panel.

[4] = solutions at about 6 SEV, room temperature

| Structure (SMILES) | Astringent, average intensity score [1] | Bitter Linger, average intensity score [1] | Bitterness, average intensity score [1] | Body, average intensity score [1] | Caramel, average intensity score [1] | Fruity, average intensity score [1] | Licorice, average intensity score [1] | Sweet Linger, average intensity score [1] | Sweetness, average intensity score [1] | Potency at 5 SEV [3] [×] | sweetness decay time after expectorating ([2]; solutions at about 6 SEV) | taste quality in words [1] | further results |
| --- | --- | --- | --- | --- | --- | --- | --- | --- | --- | --- | --- | --- | --- |
| C[C@H](CC[C@@H](O[C@@H]1O[C@H](CO[C@@H]2O[C@H](CO)[C@@H](O)[C@H](O)[C@H]2O)[C@@H](O)[C@H](O)[C@H]1O[C@@H]1O[C@H](CO)[C@@H](O)[C@H](O)[C@H]1O)C(C)(C)O)[C@H]1CC[C@@]2(C)[C@@H]3CC=C4[C@@H](CC[C@H](O[C@@H]5O[C@H](CO[C@@H]6O[C@H](CO)[C@@H](O)[C@H](O)[C@H]6O)[C@@H](O)[C@H](O)[C@H]5O)C4(C)C)[C@]3(C)[C@H](O)C[C@]12C [Mogroside V, mogroside V] | 2.9 and 2.5 | 0.0 | 1.1 and 1.4 | 11.9 and 12.1 | 4.2 and 4.5 | 2.6 and 3.0 | 0.8 and 0.7 | 16.2 and 14.3 | 35.9 and 36.3 | 185 |  |  | onset of sweetness [2, 4]: 1.1 s; time to reach maximum sweetness [2, 4]: 2.5 s; SEV at 1,000 ppm ([3]; 1,000 ppm, from Beidler curve): 11.5 SEV; Beidler equation denominator constant (SEV=a*C/(b+C), b) ([3]; C = concentration): 920.8 ppm or mg/L; Beidler equation numerator constant (SEV=a*C/(b+C), a) ([3]; SEV = % sucrose equivalent sweetness): 22.03; potency, times as sweet as sucrose at 5 SEV ([3]; listed as mogroside V): 185 times as sweet as sucrose; potency, times as sweet as sucrose at 5 SEV ([3]; listed as mogroside-V): about 185 times as sweet as sucrose; potency, times as sweet as sucrose at 5 SEV ([3]; listed as purified Mog-V): ~200 times as sweet as sucrose; Potency at 10 SEV ([3]; at 10 SEV, from Beidler curve): 131× |
| C=C1C[C@@]23CC[C@H]4[C@@](C)(CCC[C@@]4(C)C(=O)O[C@@H]4O[C@H](CO)[C@@H](O)[C@H](O[C@@H]5O[C@H](CO)[C@@H](O)[C@H](O)[C@H]5O)[C@H]4O[C@@H]4O[C@H](CO)[C@@H](O)[C@H](O)[C@H]4O)[C@@H]2CC[C@]1(O[C@@H]1O[C@H](CO)[C@@H](O)[C@H](O[C@@H]2O[C@H](CO)[C@@H](O)[C@H](O)[C@H]2O)[C@H]1O[C@@H]1O[C@H](CO)[C@@H](O)[C@H](O)[C@H]1O)C3 [Rebaudioside M, rebaudioside M] |  |  |  |  |  |  |  |  |  |  | 50 s |  |  |
| C[C@H](CC[C@@H](O[C@@H]1O[C@H](CO[C@@H]2O[C@H](CO)[C@@H](O)[C@H](O)[C@H]2O)[C@@H](O)[C@H](O)[C@H]1O[C@@H]1O[C@H](CO)[C@@H](O)[C@H](O)[C@H]1O)C(C)(C)O)[C@H]1CC[C@@]2(C)[C@@H]3CC=C4[C@@H](CC[C@H](O)C4(C)C)[C@]3(C)[C@H](O)C[C@]12C [Mogroside IIIA-1, mogroside IIIA-1] | 5.1 | 37.3 | 37.3 | 12.1 | 1.9 | 0.7 | 2.2 | 5.7 | 34.5 | 71 |  | strongly bitter with a strong lingering bitter aftertaste | taste quality in words ([1]; listed as mogroside IIIA-1): strong bitter aftertaste that almost immediately overwhelmed any lingering sweet sensation; duration of bitter taste after expectorating ([2]; 600 ppm, about 6 SEV): more than 60 seconds; SEV at which the concentration response curve plateaus ([3]; in vivo): 4-5 SEV; concentration at which sweetness plateaus ([3]; in vivo): about 500 ppm |
| C=C1C[C@@]23CC[C@H]4[C@@](C)(CCC[C@@]4(C)C(=O)O[C@@H]4O[C@H](CO)[C@@H](O)[C@H](O)[C@H]4O)[C@@H]2CC[C@]1(O[C@@H]1O[C@H](CO)[C@@H](O)[C@H](O[C@@H]2O[C@H](CO)[C@@H](O)[C@H](O)[C@H]2O)[C@H]1O[C@@H]1O[C@H](CO)[C@@H](O)[C@H](O)[C@H]1O)C3 [Rebaudioside A, rebaudioside A] |  |  |  |  |  |  |  |  |  |  | about 40 seconds | a bitter taste continued to linger; also recorded: notable bitterness compared to the other sweeteners |  |
